From patent US8410150B2, “Inhibitors of carnitine palmitoyltransferase and treating cancer” (University Health Network, priority 2007, dated 2013)
Structures can show the parent of a compound that is named as a salt.

biological target: T1, human CPT1A (Homo sapiens, UniProt P50416); test: Human CPT1A LC/MS assay; type: biochemical; settings: human CPT1A LC/MS assay, dose response format
T1 construct: made in house; host or cells: Saccharomyces cerevisiae (pESC-trp) or cultured mammalian cells (pCDNA3.1); mitochondrial extract
T1 sequence (P50416 1-773): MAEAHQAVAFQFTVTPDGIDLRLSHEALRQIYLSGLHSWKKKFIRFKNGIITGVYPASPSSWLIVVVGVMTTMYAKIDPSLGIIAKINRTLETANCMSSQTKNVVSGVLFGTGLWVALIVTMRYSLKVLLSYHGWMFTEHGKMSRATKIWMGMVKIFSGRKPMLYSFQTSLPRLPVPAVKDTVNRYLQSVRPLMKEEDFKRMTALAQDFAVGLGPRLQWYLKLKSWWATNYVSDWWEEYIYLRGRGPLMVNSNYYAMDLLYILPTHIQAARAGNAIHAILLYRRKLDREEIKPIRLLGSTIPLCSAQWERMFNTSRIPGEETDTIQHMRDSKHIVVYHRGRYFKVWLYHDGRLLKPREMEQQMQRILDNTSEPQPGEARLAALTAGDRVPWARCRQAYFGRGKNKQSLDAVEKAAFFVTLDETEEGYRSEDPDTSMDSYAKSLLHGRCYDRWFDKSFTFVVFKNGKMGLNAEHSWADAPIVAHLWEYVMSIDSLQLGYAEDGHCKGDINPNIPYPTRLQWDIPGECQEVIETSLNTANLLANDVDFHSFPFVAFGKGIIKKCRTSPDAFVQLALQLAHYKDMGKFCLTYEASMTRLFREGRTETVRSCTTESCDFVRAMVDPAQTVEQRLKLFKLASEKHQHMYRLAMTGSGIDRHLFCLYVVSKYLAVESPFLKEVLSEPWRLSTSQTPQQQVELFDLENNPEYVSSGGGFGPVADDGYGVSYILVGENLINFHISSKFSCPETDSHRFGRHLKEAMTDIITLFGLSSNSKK
From the text: Nucleotide sequences encoding human CPT1 enzymes were individually cloned into the yeast expression vector pESC-trp at the Cla1 (5′ terminus) and Pac1 (3′ terminus) restriction sites by PCR amplification of the open reading frame using oligonucleotide primers designed to encode the wild-type CPT1 protein sequence. Standard molecular biology techniques were used to transform and express the CPT1 proteins in the yeast Saccharomyces cerevisiae. The yeast cells were lysed by enzymatic degradation of the cell wall by Zymolase, and the mitochondria were isolated by standard biochemical techniques. The integrity of the isolated mitochondria was monitored by determining the activity of succinate dehydrogenase in the mitochondrial preparations. The mitochondrial extracts were stored at −80° C. in buffer containing 10 mM HEPES pH 7.4 and 250 mM sucrose.
Human CPT1 (A, B, C) genes were additionally cloned into the pCDNA3.1 vector individually for expression in cultured mammalian cells. Cells expressing the exogenous CPT1A were identified and grown under standard conditions. Mammalian cells were harvested, and mitochondrial extracts prepared using standard biochemical methods. The mitochondrial extracts were stored at −80° C. in buffer containing 10 mM HEPES pH 7.4 and 250 mM sucrose.
Assays were performed in 96-well plate format. Each 100 μL reaction contained 40 mM KCl, 50 mM TrisHCl pH 7.5, and 250 mM mannitol (Assay Buffer), and 1.6 μg protein of an extract, 20 μM palmitoyl-CoA, 50 μM L-carnitine, and 10 ug/mL BSA. Reactions were incubated at room temperature and stopped after 10 minutes by extraction with 200 μL of water saturated n-butanol containing myristoyl carnitine (500 nM) as an internal standard. The samples were thoroughly mixed, and the phases separated by centrifugation. Samples were prepared for analysis with a 10 fold dilution of the n-butanol phase containing the reaction product palmitoyl carnitine into a 50:50 (acetonitrile:water) solvent for analysis. […] of prepared sample was separated on a Phenomenex Jupiter 5μ C4 reverse-phase column using an Agilent 1100 HPLC with a gradient from 50% acetonitrile (0.5% acetic acid) to 100% acetonitrile and quantified by detection with a Bruker Esquire 3000plus mass spectrometer. The abundance of the palmitoyl carnitine product was determined relative to the internal standard and the actual quantity of palmitoyl carnitine can be determined from a standard curve prepared using the n-butanol solution containing the internal standard.
Compounds were evaluated in two formats, a screening format, and a dose response format. The screening format was performed by adding 25 μL compound in 20% DMSO and Assay Buffer to 25 μL of extract containing […] and Assay Buffer, followed by a 10 minute incubation at room temperature. 50 μL of 40 μM palmitoyl-CoA in Assay Buffer was added to the reaction mixture, mixed and incubated for 10 minutes at room temperature. A negative control for activity was also performed where the carnitine was omitted from the reaction. A positive control for activity was also performed by omitting compound from the solution containing 20% DMSO and Assay Buffer. The reaction mixture was extracted and analyzed as described above. The inhibition by compound was determined by comparing the control relative activity to the relative activity observed in wells containing the compound. Relative activity was determined by subtracting the relative intensity (area palmitoyl carnitine/area myristoyl carnitine) observed in the negative control from the relative intensity observed in the experimental well, and dividing by the relative activity observed in the positive control.
[formula] Compound characterization by dose response format was performed using the above described assay conditions and a 16 point compound titration in 2 fold compound dilution steps. The DMSO concentration was kept constant at 20% (v/v) for all compound concentrations.

SMILES | IC50 [µM]
CCCCCCCCc1cccc(NS(=O)(=O)N[C@H](CC(=O)[O-])C[N+](C)(C)C)c1 [Example S111, (R)-3-(N-(3-octylphenyl)sulfamoylamino)-4-(trimethylammonio)-butanoate] | ≤ 1
C[N+](C)(C)C[C@@H](CC(=O)[O-])NC(=O)Nc1ccccc1-c1ccccc1 [Example S101, (R)-2-(3-biphenyl-2-ylureido)-3-carboxy-N,N,N-trimethylpropan-1-aminium] | 1000 to 2500
CCCCCc1ccc(S(=O)(=O)N[C@H](CC(=O)O)C[N+](C)(C)C)cc1 [Example S23, (R)-3-(4-pentylphenylsulfonamido)-4-(trimethylammonio)butanoate 2,2,2-trifluoroacetate] | 1 to 10
CCCCCCOc1cccc(C#Cc2ccc(C(=O)N[C@H](CC(=O)[O-])C[N+](C)(C)C)o2)c1 [Example S122, (R)-3-(5-((3-(hexyloxy)phenyl)ethynyl)furan-2-carboxamido)-4-(trimethylammonio)butanoate] | 1 to 10
CCCCCCCCCCc1ccc(NS(=O)(=O)N[C@H](CC(=O)O)C[N+](C)(C)C)cc1 [Example S92, (R)-3-(N-(4-decylphenyl)sulfamoylamino)-4-(trimethylammonio)butanoate] | ≤ 1
Cc1cccc(CCc2ccc(S(=O)(=O)N[C@H](CC(=O)O)C[N+](C)(C)C)s2)c1 [Example S77, (R)-3-carboxy-N,N,N-trimethyl-2-(5-(3-methylphenethyl)thiophene-2-sulfonamido)propan-1-aminium 2,2,2-trifluoroacetate] | 10 to 100
C[N+](C)(C)C[C@@H](CC(=O)[O-])NC(=O)c1ccc(C#Cc2ccccc2)o1 [Example S3, (R)-3-(5-(phenylethynyl)furan-2-carboxamido)-4-(trimethylammonio)-butanoate] | 10 to 100
CCCCc1ccc(NC(=O)N[C@H](CC(=O)[O-])C[N+](C)(C)C)c(C)c1 [Example S13, (R)-2-(3-(4-Butyl-2-methylphenyl)ureido)-3-carboxy-N,N,N-trimethylpropan-1-aminium] | 1000 to 2500
C[N+](C)(C)C[C@@H](CC(=O)O)NC(=O)c1cccc(-c2cc[nH]n2)c1 [Example S57, (R)-3-(3-(1H-pyrazol-3-yl)benzamido)-4-(trimethylammonio)butanoate trifluoroacetate] | > 2500
CCCCCCCCCCCCN(c1ccccc1)S(=O)(=O)N[C@H](CC(=O)[O-])C[N+](C)(C)C [Example S32, (R)-3-(N-dodecyl-N-phenylsulfamoylamino)-4-(trimethylammonio)-butanoate] | 10 to 100
Cc1ccc(CCc2ccc(S(=O)(=O)N[C@H](CC(=O)O)C[N+](C)(C)C)s2)cc1 [Example S81, (R)-3-carboxy-N,N,N-trimethyl-2-(5-(4-methylphenethyl)thiophene-2-sulfonamido)propan-1-aminium 2,2,2-trifluoroacetate] | 1 to 10
CCCCCCCCCc1ccc(NS(=O)(=O)N[C@H](CC(=O)[O-])C[N+](C)(C)C)cc1 [Example S105, (R)-3-(N-(4-nonylphenyl)sulfamoylamino)-4-(trimethylammonio)-butanoate] | ≤ 1

Next, values leading:

IC50 [µM] | SMILES
1000 to 2500 | C[N+](C)(C)C[C@@H](CC(=O)[O-])NC(=O)c1ccc(CN2CCOCC2)o1 [Example S59, (R)-3-(5-(morpholinomethyl)furan-2-carboxamido)-4-(trimethylammonio)-butanoate]
≤ 1 | C[N+](C)(C)C[C@@H](CC(=O)O)NC(=O)c1ccc(C#Cc2ccsc2)s1 [Example S97, (R)-3-carboxy-N,N,N-trimethyl-2-(5-(thiophen-3-ylethynyl)thiophene-2-carboxamido)propan-1-aminium 2,2,2-trifluoroacetate]
≤ 1 | CCCCCc1ccc(CCc2ccc(C(=O)N[C@H](CC(=O)O)C[N+](C)(C)C)o2)cc1 [Example S123, (R)-3-carboxy-N,N,N-trimethyl-2-(5-(4-pentylphenethyl)furan-2-carboxamido)propan-1-aminium 2,2,2-trifluoroacetate]
10 to 100 | C[N+](C)(C)C[C@@H](CC(=O)[O-])NC(=O)Nc1ccc(Oc2ccccc2)cc1 [Example S8, (R)-3-(3-(4-phenoxyphenyl)ureido)-4-(trimethylammonio)butanoate]
≤ 1 | C[N+](C)(C)C[C@@H](CC(=O)O)NC(=O)c1ccc(CCc2ccsc2)o1 [Example S124, (R)-3-carboxy-N,N,N-trimethyl-2-(5-(2-(thiophen-3-yl)ethyl)furan-2-carboxamido)propan-1-aminium 2,2,2-trifluoroacetate]
10 to 100 | CCCCCc1ccc(NC(=O)N[C@H](CC(=O)[O-])C[N+](C)(C)C)cc1 [Example S15, (R)-3-Carboxy-N,N,N-trimethyl-2-(3-(4-pentylphenyl)ureido)propan-1-aminium]
10 to 100 | CCCCCCC#Cc1cccc(N(C)S(=O)(=O)N[C@H](CC(=O)[O-])C[N+](C)(C)C)c1 [Example S112, (R)-3-(N—(N-methyl-N-(3-(oct-1-ynyl)phenyl)sulfamoyl)amino)-4-(trimethyl-ammonio)butanoate]
100 to 1000 | C[N+](C)(C)C[C@@H](CC(=O)[O-])NC(=O)c1cccc(C#Cc2ccccc2)c1 [Example S48, (R)-3-(3-(phenylethynyl)benzamido)-4-(trimethylammonio)butanoate]
≤ 1 | CCCCCc1ccc(C#Cc2ccc(C(=O)N[C@H](CC(=O)O)C[N+](C)(C)C)s2)cc1 [Example S96, (R)-3-carboxy-N,N,N-trimethyl-2-(5-((4-pentylphenyl)ethynyl)-thiophene-2-carboxamido)propan-1-aminium 2,2,2-trifluoroacetate]
100 to 1000 | C[N+](C)(C)C[C@@H](CC(=O)[O-])NC(=O)Nc1ccc(C(F)(F)F)cc1Cl [Example S6, (R)-3-(3-(2-chloro-4-(trifluoromethyl)phenyl)ureido)-4-(trimethylammonio)-butanoate]
100 to 1000 | C[N+](C)(C)C[C@@H](CC(=O)O)NC(=O)c1ccc(CS(=O)(=O)Cc2ccccc2)o1 [Example S61, (R)-3-(5-(benzylsulfonylmethyl)furan-2-carboxamido)-4-(trimethyl-ammonio)butanoate 2,2,2-trifluoroacetate]
10 to 100 | CCCCCCCCc1ccc(N(C)S(=O)(=O)N[C@H](CC(=O)O)C[N+](C)(C)C)cc1 [Example S93, (R)-3-(N-methyl-N-(4-octylphenyl)sulfamoylamino)-4-(trimethylammonio)-butanoate]
100 to 1000 | Cc1cc(COc2ccccc2)oc1C(=O)N[C@H](CC(=O)[O-])C[N+](C)(C)C [Example S65, (R)-3-(3-methyl-5-(phenoxymethyl)furan-2-carboxamido)-4-(trimethyl-ammonio)butanoate]
